Data on one compound can be found in patent US9840500B2, “Compounds as dual inhibitors of histone methyltransferases and DNA methyltransferases” (FUNDACIÓN PARA LA INVESTIGACIÓN MÉDICA APLICADA, priority 2014, dated 2017).

In one experiment the test system is OCI-Ly1. Kind of experiment: Cell proliferation assay, OCI-Ly1 (GC-DLBCL). In kind it is cell-based. The settings on record: Homo sapiens, 48 hours. The protocol:
(§1) Cell proliferation was analyzed after 48 hours of in vitro treatment using the CellTiter 96 Aqueous One Solution Cell Proliferation Assay (Promega, Madison, Wis.). This is a colorimetric method for determining the number of viable cells in proliferation.
(§2) For the assay, suspension cells were cultured by triplicate at a density of 1×10^6 cells/ml in 96-well plates (100.000 cells/well, 100 μl/well), except for OCILY-3 and OCILY-10 cell lines which were cultured at a density of 0.5×10^6 cells/ml (50.000 cells/well, 100 μl/well) and for HepG2, Hep3B and PLC/PRF/5 cell ines which were cultured at a density of 3000 cells/well, 100 μl/well). Adherent cells were obtained from 80-90% confluent flasks and 100 μl of cells were seeded at a density of 5000 cells/well in 96-well plates by triplicate. Before addition of the compounds, adherent cells were allowed to attach to the bottom of the wells for 12 hours. […]
(§3) After 48 hours of treatment, plates with suspension cells were centrifuged at 800 g for 10 minutes and medium was removed. […] After 1-3 hours of incubation at 37° C., absorbance was measured at 490 nm in a 96-well plate reader. The background absorbance was measured in wells with only cell line medium and solution reagent. Data was calculated as a percentage of total absorbance of treated cell/absorbance of non treated cells. […]

For a further experiment, the system named is HBL-2. Kind of experiment: Cell proliferation assay, HBL-2 (MCL). In kind it is cell-based. The conditions noted are these: HBL2, 48 hours. On the procedure:
as §1, §2, §3

A further experiment concerns CEMO-1. Kind of experiment: Cell proliferation assay, CEMO-1 (ALL). In kind it is cell-based, human. The conditions noted are these: Homo sapiens.
Experiment [1] relates to human B-ALL mice model with CEMO-1 cell line. Kind of experiment: In vivo therapeutic activity in the preclinical human B-ALL mice model with CEMO-1 cell line. Also noted: species or system BALB/cA-Rag2−/−γc−/− mice. On the procedure: To examine the in vivo activity, a preclinical model of human B-ALL with RAG2 mouse was used. Six to eight-week old female BALB/cA-Rag2^−/−γc^−/− mice were purchased from The Netherlands Cancer Institute and maintained in pathogen-free isolation cages. RAG2 mice were injected intravenously (i.v.) with 10×10^6 CEMO-1 cells via tail vein to generate the human B-ALL mice model. Animals in groups of six were treated starting at day three after cells inoculation. The first group served as control and received placebo (saline) daily for 28 consecutive days, via i.v. injection.
The second group was treated with 3-04 (2.5 mg/kg) daily for 28 consecutive days via i.v. Animals were monitored weekly for weight loss and signs of tumour burden by flow cytometry of human cells. The median survival for 3-04 treated mice (N=6) was 91 days (SD: ±5.72) compared to 57 days (SD: ±10.52) for control mice (N=6) after cells inoculation.

A further experiment relates to OCI-Ly10. Kind of experiment: Cell proliferation assay, OCI-Ly10 (ABC-DLBCL). In kind it is cell-based. The conditions noted are these: Homo sapiens, 48 hours of treatment, Table 3. The protocol:
as §1
For the assay, suspension cells were cultured by triplicate at a density of 1×10^6 cells/ml in 96-well plates (100.000 cells/well, 100 μl/well), except for OCILY-3 and OCILY-10 cell lines which were cultured at a density of 0.5×10^6 cells/ml (50.000 cells/well, 100 μl/well) and for HepG2, Hep3B and PLC/PRF/5 cell ines which were cultured at a density of 3000 cells/well, 100 μl/well). Adherent cells were obtained from 80-90% confluent flasks and 100 μl of cells were seeded at a density of 5000 cells/well in 96-well plates by triplicate. Before addition of the compounds, adherent cells were allowed to attach to the bottom of the wells for 12 hours. In all cases, only the 60 inner wells were used to avoid any border effects.
After 48 hours of treatment, plates with suspension cells were centrifuged at 800 g for 10 minutes and medium was removed. The plates with adherent cells were flicked to remove medium. Then, cells were incubated with 100 ul/well of medium and 20 ul/well of CellTiter 96 Aqueous One Solution reagent. After 1-3 hours of incubation at 37° C., absorbance was measured at 490 nm in a 96-well plate reader. The background absorbance was measured in wells with only cell line medium and solution reagent. Data was calculated as a percentage of total absorbance of treated cell/absorbance of non treated cells.

For the next experiment, the system named is KMS28BM. Kind of experiment: Cell proliferation assay, KMS28BM (MM). In kind it is cell-based. The conditions noted are these: KMS-28BM, 48 hours. On the procedure: as §1, §2, §3
In a further experiment the test system is SU-DHL-7. Kind of experiment: Cell proliferation assay, SU-DHL-7 (GC-DLBCL). In kind it is cell-based. The settings on record: 48 hours. The protocol: as §1, §2, §3

Broadly, the GI50 is the concentration that inhibits growth by half. The low end stands for greater sensitivity of the cells, the high end for lower sensitivity of the cells.

In the case of `COc1cc2c(NC3CCN(C)CC3)cc(-c3ccc(C)o3)nc2cc1OCCCN1CCCC1.O=C(O)C(F)(F)F` [Compound 3-04, 6-methoxy-2-(5-methyl-2-furyl)-N-(1-methyl-4-piperidyl)-7-(3-pyrrolidin-1-ylpropoxy)quinolin-4-amine; 2,2,2-trifluoroacetic acid], the GI50 in the experiment with OCI-Ly1 fell in the range of 0.1 to 1 µM; with HBL-2 it was 0.1 to 1 µM; in the experiment on CEMO-1 (48 hours of treatment, Table 3) it was 0.1 to 1 µM; in the experiment on CEMO-1 (ALL, Table 5 comparison), 0.1 to 1 µM; in the experiment with OCI-Ly10 it was 0.1 to 1 µM; in the experiment with KMS28BM, 1 to 10 µM. The compound also displayed a GI50 in the experiment on SU-DHL-7 of 0.1 to 1 µM. The same compound gave a median survival in experiment [1] (2.5 mg/kg daily for 28 consecutive days i.v., after cells inoculation, control 57 days) of 91 days. In experiment [1] (2.5 mg/kg daily for 28 days i.v., P=0.0009), the “survival compared with the control (Kaplan-Meier, log-rank test)” value was “significantly prolonged survival”.
